The record followed here is patent US20110281810A1, “Composition” (Cognis IP Management GmbH, priority 2010, published 2011).

In brackets after ≈: the same amount, converted by molar mass.

Data set [1] in a line: physchem. The method, then:
The stated products and synergistic mixtures were investigated for their usefulness in pharmaceutical formulations and in particular for solubility improvement for sparingly soluble model substances.
The effect of the stated new solubilizers on the boost to solubility of these active ingredients was investigated and was compared with solubilizers already established for pharmaceutical applications. For this purpose, solution isotherms were recorded, and can be used to ascertain the extent of dissolution mediated by the various solubilizers. The optimum is a sharp increase in drug concentration through the use of small amounts of solubilizer, since increasing concentration may also be accompanied by an increase in the unwanted effects.
The solubilizers investigated were compared with solubilizers already established for pharmaceutical formulations, such as TEGO® SMO 80 V (Polysorbat 80) from Evonik, Solutol® HS 15 from BASF, Ludwigshafen, and Eumulgin® RO 35 PH and Speziol® TPGS Pharma (Tocophersolan) from Cognis, Monheim.

Data set [2] can be described thus: Solubilization of a homologous series of cinnamic acid derivatives in water by solubilizers. As to conditions: aqueous with cosolvent or surfactant or cyclodextrin.
Text: (§1) Additionally investigated was the solubilization of a homologous series of cinnamic acid derivatives.
The nature of data set [3]: physchem. As to conditions: aqueous with cosolvent or surfactant or cyclodextrin.
Text: as §1
The mark [4] stands for this setting: aqueous with cosolvent or surfactant or cyclodextrin, Solubility with Eumulgin RO35.
[5] abbreviates: aqueous with cosolvent or surfactant or cyclodextrin, Solubility with TEGO SMO 80V.
[6] abbreviates: water, Solubility, no solubilizer.
[7] abbreviates: Eumulgin ES solution in water, Solubility (MW) with Eumulgin ES, water, solubilizer Eumulgin ES.
[8] abbreviates: Eumulgin HPS solution in water, Solubility (MW) with Eumulgin HPS, water, solubilizer Eumulgin HPS.
Setting [9] is: Eumulgin L solution in water, Solubility (MW) with Eumulgin L, water, solubilizer Eumulgin L.
The mark [10] stands for this setting: Eumulgin O10 solution in water, Solubility (MW) with Eumulgin O10, water, solubilizer Eumulgin O10.
Setting [11] is: Eumulgin RO35 solution in water, Solubility (MW) with Eumulgin RO35, water, solubilizer Eumulgin RO35.
The mark [12] stands for this setting: Speziol TPGS solution in water, Solubility (MW) with Speziol TPGS, water, solubilizer Speziol TPGS.
Where [13] appears, read: Tego SMO 80V solution in water, Solubility (MW) with Tego SMO 80V, water, solubilizer Tego SMO 80V.
Where [14] appears, read: Solubility (MW) with Eumulgin HPS.
Where [15] appears, read: Solubility (MW) with Eumulgin L.
Setting [16] is: Solubility (MW) with Eumulgin O10.
[17] abbreviates: Solubility (MW) with Eumulgin RO35.
The mark [18] stands for this setting: Solubility (MW) with Speziol TPGS.
The mark [19] stands for this setting: Solubility (MW) with Tego SMO 80V.

In the case of `CC[C@H]1OC(=O)[C@H](C)[C@@H](O[C@H]2C[C@@](C)(OC)[C@@H](O)[C@H](C)O2)[C@H](C)[C@@H](O[C@@H]2O[C@H](C)C[C@H](N(C)C)[C@H]2O)[C@](C)(O)C[C@@H](C)C(=O)[C@H](C)[C@@H](O)[C@]1(C)O` [Erythromycin], the solubility (commonly the concentration that dissolves in the medium under given conditions) is 1230 µg/mL in “physchem [1]” (aqueous with cosolvent or surfactant or cyclodextrin, Solubility with Eumulgin HPS); 1070 µg/mL in the data set “physchem [1]” (aqueous with cosolvent or surfactant or cyclodextrin, Solubility with Eumulgin L); 1660 µg/mL in “physchem [1]” (setting [4]); 1720 µg/mL in the data set “physchem [1]” (aqueous with cosolvent or surfactant or cyclodextrin, Solubility with Speziol TPGS); 1700 µg/mL in the data set “physchem [1]” (setting [5]); 459 µg/mL in the data set “physchem [1]” (setting [6]).

As for `CC(C)COC(=O)C=Cc1ccccc1` [Isobutyl cinnamate, isobutyl cinnamate], the solubility turned out to be 1.2 mg/mL (≈ 5.87 mM) in data set [2] (setting [7]); 29 mg/mL (≈ 142 mM) in data set [2] (setting [8]); 41 mg/mL (≈ 201 mM) in data set [2] (setting [9]); 65.9 mg/mL (≈ 323 mM) in data set [2] (setting [10]); 54.2 mg/mL (≈ 265 mM) in data set [2] (setting [11]); 23.1 mg/mL (≈ 113 mM) in data set [2] (setting [12]). In data set [2] (setting [13]), the solubility came out at 110 mg/mL (≈ 539 mM).

On to `CC(C)OC(=O)C=Cc1ccccc1` [Isopropyl cinnamate, isopropyl cinnamate], for which the solubility in data set [2] (setting [7]) came out at 3.4 mg/mL (≈ 17.9 mM); in data set [2] (setting [8]) it was 25.7 mg/mL (≈ 135 mM); in data set [2] (setting [9]) it was 15.2 mg/mL (≈ 79.9 mM); in data set [2] (setting [10]) it was 32.6 mg/mL (≈ 171 mM); in data set [2] (setting [11]) it was 50.9 mg/mL (≈ 268 mM); in data set [2] (setting [12]) it was 21 mg/mL (≈ 110 mM). Besides, the solubility in data set [2] (setting [13]) was 52.5 mg/mL (≈ 276 mM).

With `CCC(C)n1ncn(-c2ccc(N3CCN(c4ccc(OCC5COC(Cn6cncn6)(c6ccc(Cl)cc6Cl)O5)cc4)CC3)cc2)c1=O` (centres unmarked) [Itraconazole], in the data set “physchem [1]”, the “Solubility with Eumulgin ES” value worked out at 9 µg/mL, the “Solubility with Eumulgin HPS” value was determined as 0.008 mg/m1, the “Solubility with Eumulgin L” value amounted to 7 µg/mL and the “Solubility with Speziol TPGS” value was 8 µg/mL. Besides, the solubility in “physchem [1]” (setting [4]) worked out at 11 µg/mL. Further, the solubility in the data set “physchem [1]” (setting [5]) was 15 µg/mL. Moreover, the solubility in “physchem [1]” (setting [6]) amounted to 1 µg/mL.

For the molecule `CCOC(=O)C=Cc1ccccc1` [Ethyl cinnamate, ethyl cinnamate], the solubility amounted to 23600 µg/mL (≈ 134 mM) in “physchem [3]” (setting [14]); 14700 µg/mL (≈ 83.4 mM) in the data set “physchem [3]” (setting [15]); 47000 µg/mL (≈ 267 mM) in the data set “physchem [3]” (setting [16]); 68000 µg/mL (≈ 386 mM) in “physchem [3]” (setting [17]); 42300 µg/mL (≈ 240 mM) in the data set “physchem [3]” (setting [18]); 96400 µg/mL (≈ 547 mM) in the data set “physchem [3]” (setting [19]).

On to `COC(=O)C=Cc1ccccc1` [Methyl cinnamate, methyl cinnamate], for which the solubility was found to be 3 mg/mL (≈ 18.5 mM) in data set [2] (setting [7]); 11.4 mg/mL (≈ 70.3 mM) in data set [2] (setting [8]); 9.8 mg/mL (≈ 60.4 mM) in data set [2] (setting [9]); 9.1 mg/mL (≈ 56.1 mM) in data set [2] (setting [10]); 21.5 mg/mL (≈ 133 mM) in data set [2] (setting [11]); 7.9 mg/mL (≈ 48.7 mM) in data set [2] (setting [12]). The molecule further yielded a solubility in data set [2] (setting [13]) of 9.6 mg/mL (≈ 59.2 mM).

With `O=C(C=Cc1ccccc1)OCCc1ccccc1` [Phenethyl cinnamate, phenethyl cinnamate], the solubility in the data set “physchem [3]” (Solubility (MW) with Eumulgin ES) was found to be 3200 µg/mL (≈ 12.7 mM); in “physchem [3]” (setting [14]), 2700 µg/mL (≈ 10.7 mM); in “physchem [3]” (setting [15]) it was 2500 µg/mL (≈ 9.91 mM); in “physchem [3]” (setting [16]) it was 3700 µg/mL (≈ 14.7 mM); in the data set “physchem [3]” (setting [17]), 4900 µg/mL (≈ 19.4 mM); in the data set “physchem [3]” (setting [18]), 2600 µg/mL (≈ 10.3 mM). This molecule also gave a solubility in “physchem [3]” (setting [19]) of 2500 µg/mL (≈ 9.91 mM).
